{
  "source": "patent US20230098403A1",
  "about": "“MAGNETIC RESONANCE IMAGING CONTRAST AGENT, PREPARATION METHOD AND USE THEREOF” (GUANGZHOU PINGLAN MEDICAL TECHNOLOGY CO., LTD., priority 2020, published 2023)",
  "key": {"[1]": {"conditions": "comparison value for the commercial agent; cited from earlier work"}, "[2]": {"assay": "Relaxivity measurement (T1 and T2 relaxation, MRI Contrast Agent Analyzer)", "format": "physicochemical", "conditions": "0.5 T, 32° C.", "procedure": "The method for measuring the relaxivity comprises the following steps: preparing contrast agent solutions in a gradient concentration (0.054, 0.109, 0.224, 0.451, 0.906 mM, in Hepes buffer, pH=7.4), and measuring the contrast agent samples at different concentrations by Niumag PQ001 MRI Contrast Agent Analyzer (0.5±0.08T, main frequency of instrument: 21.3 MHz; at 32° C.) to respectively obtain their T1 and T2 relaxation time, and then performing a linear fitting between the relaxation rate, Ri (Ri=1/Ti, i=1, 2) and the contrast agent concentrations to obtain a slope, i.e., relaxivity (ri, i=1, 2). Relaxivity reflects the ability of magnetic resonance imaging contrast agent to alter the relaxation time of water proton and is an important parameter to evaluate the quality of contrast agent. Relaxivity (ri, i=1, 2) is defined as the alteration in the relaxation rate of water proton (1/Ti, i=1, 2) by unit concentration of MRI Contrast agent (mmol/L)."}},
  "data": [
    {"smiles": "CNC[C@H](O)[C@@H](O)[C@H](O)[C@H](O)CO.CNC[C@H](O)[C@@H](O)[C@H](O)[C@H](O)CO.O=C([O-])CN(CCN(CC(=O)[O-])CC(=O)O)CCN(CC(=O)[O-])CC(=O)O.[Gd+3]", "note": "[Magnvist®]", "values": [
      {"measurement": "relaxivity r1", "setting": "[1]", "result": 3.4, "unit": "mmol⁻¹ s⁻¹"}
    ]},
    {"smiles": "O=C([O-])CN(CP(=O)([O-])O)C1CCCCC1N(CC(=O)[O-])CP(=O)([O-])O.[Fe+3].[Na+]", "note": "(centres unmarked) [Example 4]", "values": [
      {"measurement": "relaxation efficiency r1", "setting": "[2]", "result": 1.80, "unit": "mmol⁻¹ s⁻¹"}
    ]}
  ]
}
